Measurements taken from ChEMBL document CHEMBL5543126, “Combinatorial Ubiquitination REal-time PROteolysis (CURE-PROs): A Modular Platform for Generating Reversible, Self-Assembling Bifunctional Targeted Degraders” (J Med Chem, 2024).
One block for each compound: values may come before it. Activity calls are given as the source filed them. The rule behind the calls is not given here.

How the values were obtained:
Type in all cases: cell-based
[1] = biological target: T1, von Hippel-Lindau disease tumor suppressor/Bromodomain-containing protein 4 (Homo sapiens, UniProt O60885+P40337); assay: (§1) PROTAC activity at VHL/BRD4 in HEK293 cells assessed as induction of BRD4 degradation by measuring maximal level of degradation at 0.3 uM measured every 15 mins for 24 hrs in presence of VHL based ligand (2S,4R)-1-((S)-2-(2,3-dihydroxybenzamido)-3,3-dimethylbutanoyl)-4-hydroxy-N-(4-(4-methylthiazol-5-yl)benzyl)pyrrolidine-2-carboxamide by HiBiT based Combinatorial Ubiquitination Real-time PROteolysis analysis
T1 sequence (P40337 whole entry, looked up, other chains not shown): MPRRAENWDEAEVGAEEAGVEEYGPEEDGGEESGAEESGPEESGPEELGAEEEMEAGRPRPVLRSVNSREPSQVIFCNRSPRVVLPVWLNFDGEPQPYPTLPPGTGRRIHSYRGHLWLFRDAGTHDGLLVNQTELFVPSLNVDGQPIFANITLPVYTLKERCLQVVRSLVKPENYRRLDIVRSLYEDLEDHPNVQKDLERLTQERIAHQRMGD

[2] = biological target: T1, von Hippel-Lindau disease tumor suppressor/Bromodomain-containing protein 4; assay: (§2) PROTAC activity at BRD4/VHL in human MCF7 cells assessed as induction of BRD4 degradation by measuring residual activity at 30 nM incubated for 24 hrs in presence of 100 nM VHL based ligand (2S,4R)-1-((S)-2-(2,3-dihydroxybenzamido)-3,3-dimethylbutanoyl)-4-hydroxy-N-(4-(4-methylthiazol-5-yl)benzyl)pyrrolidine-2-carboxamide by Western blot based Combinatorial Ubiquitination Real-time PROteolysis analysis
[3] = biological target: T1, von Hippel-Lindau disease tumor suppressor/Bromodomain-containing protein 4; assay: as §2, with “1 uM” for “100 nM”
[4] = biological target: Protein cereblon/Bromodomain-containing protein 4 (Homo sapiens) (UniProt O60885+Q96SW2); assay: PROTAC activity at BRD4/CRBN in human HeLa cells assessed as induction of BRD4 degradation at 10 uM incubated for 24 hrs in presence of CRBN based ligand (1S,4R,5R,6S)-N-((2-(2,6-dioxopiperidin-3-yl)-1,3-dioxoisoindolin-4-yl)methyl)-5,6-dihydroxybicyclo[2.2.1]heptane-2-carboxamide by Western blot analysis based Combinatorial Ubiquitination Real-time PROteolysis analysis
Sequence of Protein cereblon/Bromodomain-containing protein 4 (Homo sapiens) (Q96SW2 whole entry, looked up, other chains not shown): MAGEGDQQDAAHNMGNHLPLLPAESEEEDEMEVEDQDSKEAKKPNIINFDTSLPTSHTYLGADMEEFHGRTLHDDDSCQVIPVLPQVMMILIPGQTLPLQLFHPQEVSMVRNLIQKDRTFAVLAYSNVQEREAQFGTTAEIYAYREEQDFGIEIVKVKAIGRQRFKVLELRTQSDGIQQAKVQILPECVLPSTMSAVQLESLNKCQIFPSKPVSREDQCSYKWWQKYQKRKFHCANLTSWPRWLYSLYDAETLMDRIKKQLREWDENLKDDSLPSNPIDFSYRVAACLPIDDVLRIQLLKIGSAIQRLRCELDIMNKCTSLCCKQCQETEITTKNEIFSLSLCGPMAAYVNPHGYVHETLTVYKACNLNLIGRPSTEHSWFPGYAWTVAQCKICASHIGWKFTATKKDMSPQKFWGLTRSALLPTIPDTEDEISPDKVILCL

[5] = biological target: T1, von Hippel-Lindau disease tumor suppressor/Bromodomain-containing protein 4; assay: as §2, with “3 uM” for “30 nM”, “10 uM” for “100 nM”
[6] = biological target: T1, von Hippel-Lindau disease tumor suppressor/Bromodomain-containing protein 4; assay: as §2, with “3 uM” for “100 nM”
[7] = biological target: T1, von Hippel-Lindau disease tumor suppressor/Bromodomain-containing protein 4; assay: as §1, with “Tmax” for “maximal level of degradation”, “3” for “0.3”
[8] = biological target: T1, von Hippel-Lindau disease tumor suppressor/Bromodomain-containing protein 4; assay: as §2, with “1 uM” for “30 nM”, “3 uM” for “100 nM”
[9] = biological target: T1, von Hippel-Lindau disease tumor suppressor/Bromodomain-containing protein 4; assay: as §2, with “300” for “30”
[10] = biological target: T1, von Hippel-Lindau disease tumor suppressor/Bromodomain-containing protein 4; assay: PROTAC activity at VHL/BRD4 in HEK293 cells assessed as induction of BRD4 degradation by measuring degradation rate at 0.3 uM measured every 15 mins for 24 hrs in presence of VHL based ligand (2S,4R)-1-((S)-2-(2,3-dihydroxybenzamido)-3,3-dimethylbutanoyl)-4-hydroxy-N-(4-(4-methylthiazol-5-yl)benzyl)pyrrolidine-2-carboxamide by HiBiT based Combinatorial Ubiquitination Real-time PROteolysis analysis
[11] = biological target: T1, von Hippel-Lindau disease tumor suppressor/Bromodomain-containing protein 4; assay: as §2, with “100” for “30”, “10 uM” for “100 nM”
[12] = biological target: T1, von Hippel-Lindau disease tumor suppressor/Bromodomain-containing protein 4; assay: (§3) PROTAC activity at VHL/BRD4 in HEK293 cells assessed as induction of BRD4 degradation by measuring maximal level of degradation at 1 uM measured every 15 mins for 24 hrs in presence of BRD4 based ligand ((4S)-6-(4-chlorophenyl)-4-(2-(ethylamino)-2-oxoethyl)-1-methyl4Hbenzo[f][1,2,4]triazolo [4,3-a][1,4]diazepin-8-yl)boronic acid by HiBiT based Combinatorial Ubiquitination Real-time PROteolysis analysis
[13] = biological target: T1, von Hippel-Lindau disease tumor suppressor/Bromodomain-containing protein 4; assay: (§4) PROTAC activity at BRD4/VHL in human MCF7 cells assessed as induction of BRD4 degradation by measuring residual activity at 1 uM incubated for 24 hrs in presence of 1 uM BRD4 based ligand ((4S)-6-(4-chlorophenyl)-4-(2-(ethylamino)-2-oxoethyl)-1-methyl4Hbenzo[f][1,2,4]triazolo [4,3-a][1,4]diazepin-8-yl)boronic acid by Western blot based Combinatorial Ubiquitination Real-time PROteolysis analysis
[14] = biological target: T1, von Hippel-Lindau disease tumor suppressor/Bromodomain-containing protein 4; assay: as §4, with “at 10” for “at 1”, “of” for “of 1 uM”
[15] = biological target: T1, von Hippel-Lindau disease tumor suppressor/Bromodomain-containing protein 4; assay: as §4, with “at 100 nM” for “at 1 uM”, “of 10” for “of 1”
[16] = biological target: T1, von Hippel-Lindau disease tumor suppressor/Bromodomain-containing protein 4; assay: as §3, with “measuring Tmax” for “measuring maximal level of degradation”, “at 3” for “at 1”
[17] = biological target: T1, von Hippel-Lindau disease tumor suppressor/Bromodomain-containing protein 4; assay: as §4, with “at 10” for “at 1”, “of 3” for “of 1”
[18] = biological target: T1, von Hippel-Lindau disease tumor suppressor/Bromodomain-containing protein 4; assay: as §4, with “at 300 nM” for “at 1 uM”, “of 100 nM” for “of 1 uM”
[19] = biological target: T1, von Hippel-Lindau disease tumor suppressor/Bromodomain-containing protein 4; assay: as §4, with “30 nM” for “1 uM”, “of” for “of 1 uM”
[20] = biological target: T1, von Hippel-Lindau disease tumor suppressor/Bromodomain-containing protein 4; assay: as §3, with “at 0.3” for “at 1”
[21] = biological target: T1, von Hippel-Lindau disease tumor suppressor/Bromodomain-containing protein 4; assay: as §4, with “at 300 nM” for “at 1 uM”
[22] = biological target: T1, von Hippel-Lindau disease tumor suppressor/Bromodomain-containing protein 4; assay: as §4, with “at 300 nM” for “at 1 uM”, “of 10” for “of 1”
[23] = biological target: T1, von Hippel-Lindau disease tumor suppressor/Bromodomain-containing protein 4; assay: as §3, with “measuring Tmax” for “measuring maximal level of degradation”, “at 10” for “at 1”
[24] = biological target: T1, von Hippel-Lindau disease tumor suppressor/Bromodomain-containing protein 4; assay: as §4, with “reduction in” for “induction of”, “level” for “degradation by measuring residual activity at 1 uM”, “VHL” for “1 uM BRD4”

SMILES: CCNC(=O)C[C@@H]1N=C(c2ccc(Cl)cc2)c2cc(B(O)O)ccc2-n2c(C)nnc21
Emax [1]: 47% | Activity [2]: 89% | Activity [3]: 96% | Activity [4]: inactive | Activity [5]: 16% | Activity [6]: 90% | Tmax [7]: 18 h | Activity [8]: 22% | Activity [9]: 72% | Activity [10]: 0.144 h⁻¹ | Activity [11]: 87%

Emax [12]: 80% | Activity [13]: 35% | Activity [14]: 95% | Activity [15]: 87% | Tmax [16]: 18 h | Activity [17]: 7% | Activity [18]: 72% | Activity [19]: 91% | Emax [20]: 47% | Activity [21]: 38% | Activity [22]: 40% | Tmax [23]: 22.2 h | Activity [24]: Active | DC50 [24]: 358 nM
SMILES: Cc1ncsc1-c1ccc(CNC(=O)[C@@H]2C[C@@H](O)CN2C(=O)[C@@H](NC(=O)c2cccc(O)c2O)C(C)(C)C)cc1
